A short description of data set [1]: Skin cell toxicity assay with HaCaT (alamarBlue). The class given is cell-based, human. The settings on record: human, HaCaT cells (keratinocytes). The protocol:
(§1) The activity of our peptoid library was assessed against both bacterial and mammalian cells to gain a broader understanding of the factors that lead to effective and selective antimicrobial peptoids. We screened for broad-spectrum antibacterial activity against Gram-negative (Escherichia coli and Pseudomonas aeruginosa) and Gram-positive (Staphylococcus aureus and S. epidermidis) bacteria. The toxicity of the library was also assessed against two mammalian cell lines; HaCaT spontaneously transformed aneuploid keratinocytes were employed to model toxicity against human skin cells and HepG2, a cell line derived from a human liver carcinoma, were used as a study on polarised human hepatocytes. Detailed methods for these assays can be found in the ESI. ^‡ […]
(§2) Please note – ED50, the median effective dose, was defined as the dose that kills 50% of cells.
Cytotoxicity analyses were performed in 96-well plates (Costar, Fisher Scientific) using alamarBlue® (Invitrogen) for cell viability detection using a modified protocol as described previously. HepG2 or HaCaT cells were subcultured at 37 °C, 5% CO2 in DMEM high glucose supplemented with heat-inactivated foetal bovine sera (FBS, 10%; Biosera Ltd) and penicillin/streptomycin (P/S, 1%). Cells were counted using a Neubauer Improved Haemocytometer. HepG2 cells were seeded 1 day prior to treatment in 96 well plates at a concentration of 2 × 10^5 cells per mL in 100 μL of medium (2 × 10^4 cells per well). Then cells were pre-incubated with the compounds in triplicate in a dilution series in triplicate from 2–100 μM (5 mM stock solutions in DMSO diluted from 100 μM to 3 μM; untreated cells with DMSO as a negative control) in 50 μl of the media for 1 hour. Afterwards, 40 μL were removed from each well before the addition of 90 μL of the media, followed by incubation for 24 hours at 37 °C, 5% CO2. Then, 10 μL of alamarBlue® (Invitrogen) was added to each well before a 2 hour incubation prior to assessing cell viability using a fluorescent plate reader (Biotek; Ex 560 nm/Em 600 nm). All data were measured in triplicate on a minimum of two occasions to ensure a robust data set was collected. The ED50 values were calculated from the dose response results achieved from the serial dilutions. […]
Cells were counted using a Neubauer Improved
Haemocytometer. […]
µM to 3 µM; untreated cells with DMSO as a negative control) in 50 µl of the media for 1 hour.
Afterwards, 40 µL were removed from each well before the addition of 90 µL of the media, followed by incubation for 24 hours at 37 °C, 5% CO2. Then, 10 µL of alamarBlue® (Invitrogen) was added to each well before a 2 hour incubation prior to assessing cell viability using a fluorescent plate reader (Biotek; Ex 560 nm / Em 600 nm). All data was measured in triplicate on a minimum of two occasions to ensure a robust data set was collected. The ED50 values were calculated from the dose response results achieved from the serial dilutions.
Skin Cell Toxicity assay with HaCaT […]
alamarBlue® (Invitrogen) for cell viability detection. HaCaT cells were subcultured at 37 °C, 5% CO2 in DMEM high glucose supplemented with heat-inactivated foetal bovine sera (FBS, 10%; Biosera Ltd) and penicillin/streptomycin (P/S, 1%). Cells were counted using a Neubauer Improved Haemocytometer. HaCaT cells were seeded in the plates 24 hours prior to treatment in 96 well plates at a concentration of 2x10^5 cells/mL in 100 µL of medium (2x10^4 cells/well).
Empty wells were filled with 100 µL PBS. After 24 hours, cells were incubated with the compounds in a dilution series in triplicate from 2 – 100 µM (5 mM stock solutions in DMSO diluted from 100 µM to 3 µM; Amphotericin B was used as a positive control and untreated cells with DMSO as a negative control) in 50 µL of the media for 1 hour. Afterwards, 40 µl was removed from each well, 90 µL of medium was added to each well and the cells incubated for 24 hours at 37 °C, 5% CO2. 10 µL of alamarBlue® (Invitrogen) was added to each well before […]
Background: Alamar Blue is a resazurin reagent that responds to reducing activity.

The nature of data set [2]: Cytotoxicity assay with HepG2 (alamarBlue). Format: cell-based, human. The settings on record: human, HepG2 cells. As to the method: as §1, §2
Cytotoxicity analyses were performed in 96-well plates (Costar, Fisher Scientific) using alamarBlue® (Invitrogen) for cell viability detection using a modified protocol as described previously. HepG2 or HaCaT cells were subcultured at 37 °C, 5% CO2 in DMEM high glucose supplemented with heat-inactivated foetal bovine sera (FBS, 10%; Biosera Ltd) and penicillin/streptomycin (P/S, 1%). Cells were counted using a Neubauer Improved Haemocytometer. HepG2 cells were seeded 1 day prior to treatment in 96 well plates at a concentration of 2 × 10^5 cells per mL in 100 μL of medium (2 × 10^4 cells per well). Then cells were pre-incubated with the compounds in triplicate in a dilution series in triplicate from 2–100 μM (5 mM stock solutions in DMSO diluted from 100 μM to 3 μM; untreated cells with DMSO as a negative control) in 50 μl of the media for 1 hour. Afterwards, 40 μL were removed from each well before the addition of 90 μL of the media, followed by incubation for 24 hours at 37 °C, 5% CO2. Then, 10 μL of alamarBlue® (Invitrogen) was added to each well before a 2 hour incubation prior to assessing cell viability using a fluorescent plate reader (Biotek; Ex 560 nm/Em 600 nm). All data were measured in triplicate on a minimum of two occasions to ensure a robust data set was collected. The ED50 values were calculated from the dose response results achieved from the serial dilutions.
Cytotoxicity assay with HepG2
Cytotoxicity analyses were performed in 96-well plates (Costar, Fisher Scientific) using alamarBlue® (Invitrogen) for cell viability detection using a modified protocol as previously described. The HepG2 cells were grown at 37 °C, 5% CO2 in DMEM high glucose supplemented with heat-inactivated foetal bovine sera (FBS, 10%; Biosera Ltd) and penicillin/streptomycin (P/S, 1%). Cells were counted using a Neubauer Improved Haemocytometer. HepG2 cells were seeded 1 day prior to treatment in 96 well plates at a concentration of 2x10^5 cells/mL in 100 µL of medium (2x10^4 cells/well). Then cells were pre-incubated with the compounds in triplicate (5 mM stock solutions in DMSO diluted from 100 µM to 3 µM; untreated cells with DMSO as a negative control) in 50 µl of the media for 1 hour.
Afterwards, 40 µL were removed from each well before the addition of 90 µL of the media, followed by incubation for 24 hours at 37 °C, 5% CO2. Then, 10 µL of alamarBlue® (Invitrogen) was added to each well before a 2 hour incubation prior to assessing cell viability using a fluorescent plate reader (Biotek; Ex 560 nm / Em 600 nm). All data was measured in triplicate on a minimum of two occasions to ensure a robust data set was collected. The ED50 values were calculated from the dose response results achieved from the serial dilutions. […]
5% CO2 in DMEM high glucose supplemented with heat-inactivated foetal bovine sera (FBS, 10%; Biosera Ltd) and penicillin/streptomycin (P/S, 1%). Cells were counted using a Neubauer […]
Empty wells were filled with 100 µL PBS. After 24 hours, cells were incubated with the compounds in a dilution series in triplicate from 2 – 100 µM (5 mM stock solutions in DMSO […]

Where [3] appears, read: dose that kills 50% of cells, 2–100 μM, 1 h with compound then 24 h, alamarBlue, read-out: ED50 HaCaT.
Where [4] appears, read: dose that kills 50% of cells, 2–100 μM, 1 h with compound then 24 h, alamarBlue, read-out: ED50 HepG2.

Molecules are shown by their SMILES. Square brackets hold non-standard residues; d marks the D form. Peptide text beside a SMILES is read from it. Gly(Nα-4-Cl-benzyl) = O=C(O)CNCc1ccc(Cl)cc1; N(4-F-Bzl)Gly = O=C(O)CNCc1ccc(F)cc1; Gly(N-(CH2)6NH2) = NCCCCCCNCC(=O)O; Gly(N-2-aminoethyl) = NCCNCC(=O)O; Nspe = C[C@H](NCC(=O)O)c1ccccc1; Nphe = O=C(O)CNCc1ccccc1; Nlys = NCCCCNCC(=O)O

Consider `NCCCCCCNCC(=O)N(CC(=O)N(CC(=O)N(CCCCCCN)CC(=O)N(CC(=O)N(CC(=O)N(CCCCCCN)CC(=O)N(CC(=O)N(CC(N)=O)Cc1ccccc1)Cc1ccccc1)Cc1ccccc1)Cc1ccccc1)Cc1ccccc1)Cc1ccccc1` [Peptoid 2, (NahNpheNphe)3] (H-[Gly(N-(CH2)6NH2)][Nphe][Nphe][Gly(N-(CH2)6NH2)][Nphe][Nphe][Gly(N-(CH2)6NH2)][Nphe][Nphe]-NH2), for which the CC50 at 24 h in data set [1] (ED50 HaCaT) and in data set [2] (ED50 HepG2) was 100 µM in each case.
As to `CCCCCNCC(=O)N(CC(=O)N(CC(=O)N(CCCCC)CC(=O)N(CC(=O)N(CC(=O)N(CCCCN)CC(=O)N(CC(=O)N(CC(=O)N(CCCCN)CC(=O)N(CC(=O)N(CC(N)=O)[C@@H](C)c1ccccc1)[C@@H](C)c1ccccc1)[C@@H](C)c1ccccc1)[C@@H](C)c1ccccc1)[C@@H](C)c1ccccc1)[C@@H](C)c1ccccc1)[C@@H](C)c1ccccc1)[C@@H](C)c1ccccc1` [Peptoid 31, (NamyNspeNspe)2(NLysNspeNspe)2], the CC50 at 24 h in data set [1] (ED50 HaCaT) came to 20 µM; in data set [2] (ED50 HepG2), 18 µM.
For `C[C@@H](c1ccccc1)N(CC(N)=O)C(=O)CN(C(=O)CN(CCCCN)C(=O)CN(C(=O)CN(C(=O)CNCCCCN)[C@@H](C)c1ccccc1)[C@@H](C)c1ccccc1)[C@@H](C)c1ccccc1` [Peptoid 15, (NLysNspeNspe)2] (H-[Nlys][Nspe][Nspe][Nlys][Nspe][Nspe]-NH2), the CC50 at 24 h in data set [1] (ED50 HaCaT) and in data set [2] (ED50 HepG2) was 100 µM throughout.
In the case of `C[C@@H](c1ccccc1)N(CC(N)=O)C(=O)CN(C(=O)CN(CCCCN)C(=O)CN(Cc1ccc(F)cc1)C(=O)CN(Cc1ccc(F)cc1)C(=O)CN(CCCCN)C(=O)CN(C(=O)CN(C(=O)CNCCCCN)[C@@H](C)c1ccccc1)[C@@H](C)c1ccccc1)[C@@H](C)c1ccccc1` [Peptoid 29, (NLysNspeNspe)(NLysNpfbNpfb)(NLysNspeNspe)], the results for the CC50 at 24 h in data set [1] (setting [3]) and in data set [2] (setting [4]) were 65 µM and 43 µM, respectively.
Regarding `C[C@@H](c1ccccc1)N(CC(N)=O)C(=O)CN(C(=O)CN(CCN)C(=O)CN(C(=O)CN(C(=O)CNCCN)[C@@H](C)c1ccccc1)[C@@H](C)c1ccccc1)[C@@H](C)c1ccccc1` [Peptoid 18, (NaeNspeNspe)2], the CC50 at 24 h in data set [1] (ED50 HaCaT) and in data set [2] (ED50 HepG2) was 100 µM in each case.
Consider `C[C@@H](c1ccccc1)N(CC(N)=O)C(=O)CN(C(=O)CN(CCCCCCN)C(=O)CN(C(=O)CN(C(=O)CNCCCCCCN)[C@@H](C)c1ccccc1)[C@@H](C)c1ccccc1)[C@@H](C)c1ccccc1` [Peptoid 12, (NahNspeNspe)2], for which the CC50 at 24 h in data set [1] (ED50 HaCaT) and in data set [2] (ED50 HepG2) was 100 µM in each case.
Regarding `NCCCCNCC(=O)N(CC(=O)N(CC(=O)N(CCCCN)CC(=O)N(CC(=O)N(CC(=O)N(CCCCN)CC(=O)N(CC(=O)N(CC(N)=O)Cc1ccc(F)cc1)Cc1ccc(F)cc1)Cc1ccc(F)cc1)Cc1ccc(F)cc1)Cc1ccc(F)cc1)Cc1ccc(F)cc1` [Peptoid 23, (NLysNpfbNpfb)3] (H-[Nlys][N(4-F-Bzl)Gly][N(4-F-Bzl)Gly][Nlys][N(4-F-Bzl)Gly][N(4-F-Bzl)Gly][Nlys][N(4-F-Bzl)Gly][N(4-F-Bzl)Gly]-NH2), the CC50 at 24 h in data set [1] (ED50 HaCaT) was determined as 100 µM; in data set [2] (ED50 HepG2), 45 µM.
For the molecule `NCCNCC(=O)N(CC(=O)N(CC(=O)N(CCN)CC(=O)N(CC(=O)N(CC(N)=O)Cc1ccccc1)Cc1ccccc1)Cc1ccccc1)Cc1ccccc1` [Peptoid 9, (NaeNpheNphe)2] (H-[Gly(N-2-aminoethyl)][Nphe][Nphe][Gly(N-2-aminoethyl)][Nphe][Nphe]-NH2), the CC50 at 24 h in data set [1] (ED50 HaCaT) and in data set [2] (ED50 HepG2) was 100 µM throughout.
As to `NCCCCNCC(=O)N(CC(=O)N(CC(=O)N(CCCCN)CC(=O)N(CC(=O)N(CC(=O)N(CCCCN)CC(=O)N(CC(=O)N(CC(N)=O)Cc1ccc(Cl)cc1)Cc1ccc(Cl)cc1)Cc1ccc(Cl)cc1)Cc1ccc(Cl)cc1)Cc1ccc(Cl)cc1)Cc1ccc(Cl)cc1` [Peptoid 21, (NLysNpcbNpcb)3] (H-[Nlys][Gly(Nα-4-Cl-benzyl)][Gly(Nα-4-Cl-benzyl)][Nlys][Gly(Nα-4-Cl-benzyl)][Gly(Nα-4-Cl-benzyl)][Nlys][Gly(Nα-4-Cl-benzyl)][Gly(Nα-4-Cl-benzyl)]-NH2), the CC50 at 24 h in data set [1] (ED50 HaCaT) worked out at 22 µM; in data set [2] (ED50 HepG2), 23 µM.
On the same counts, the results for `NCCCCNCC(=O)N(CC(=O)N(CC(=O)N(CCCCN)CC(=O)N(CC(=O)N(CC(=O)N(CCCCN)CC(=O)N(CC(=O)N(CC(N)=O)Cc1cccc(F)c1)Cc1cccc(F)c1)Cc1cccc(F)c1)Cc1cccc(F)c1)Cc1cccc(F)c1)Cc1cccc(F)c1` [Peptoid 25, (NLysNmfbNmfb)3] are 64 µM and 43 µM.
On to `C[C@@H](c1ccccc1)N(CC(N)=O)C(=O)CN(C(=O)CN(CCCCN)C(=O)CN(C(=O)CN(C(=O)CN(CCCCN)C(=O)CN(C(=O)CN(C(=O)CNCCCCN)[C@@H](C)c1ccccc1)[C@@H](C)c1ccccc1)[C@@H](C)c1ccccc1)[C@@H](C)c1ccccc1)[C@@H](C)c1ccccc1` [Peptoid 14, (NLysNspeNspe)3] (H-[Nlys][Nspe][Nspe][Nlys][Nspe][Nspe][Nlys][Nspe][Nspe]-NH2), for which the CC50 at 24 h in data set [1] (setting [3]) and in data set [2] (setting [4]) was 100 µM in each case.

(Values after article PMC6072100, “Exploring the links between peptoid antibacterial activity and toxicity” (MedChemComm, 2017).)
